Measured values from patent publication US4207326A, “Antimicrobial quaternary pyrazole derivatives” (Cilag-Chemie A.G., priority 1979, dated 1980).
Like-named read-outs stand apart in the source and are kept apart here.

Columns and labels:
A. corymbifera = assay: Antifungal activity: Minimum Inhibitory Concentration; assay type: cell-based, Absidia corymbifera NCPF 2001; details: for MIC: Lichtheimia corymbifera, read-out: Minimum Inhibitory Concentration
Experimental: (§1) The antimicrobial activity was determined by inoculation of the test microorganism into suitable growth media containing solutions of the compounds at concentrations of 100, 50, 10, 5, 1.0, 0.5 and 0.1 μg/ml. The reference antibiotics used were Gentamicin for the antibacterial tests and Amphotericin B for the antimycotic and antifungal tests. After incubation the antimicrobial activity was recorded as the Minimal Inhibitory Concentration (M.I.C.), i.e., the lowest concentration preventing macroscopically visible growth, for each test compound against each organism.
(§2) An initial solution of each formula (I) compound to be tested in sterile distilled water was prepared at a concentration of 1000 μg/ml. With appropriate dilutions using sterile distilled water, additional solutions were prepared at concentrations of 500, 100, 50, 10, 5 and 1 μg/ml.
A. corymbifera NCPF 2001
(§3) The A. corymbifera, A. fumigatus, S. schenkii, T. rubrum, T. mentagrophytes, M. canis and P. verrucosa strains were all maintained on Sabouraud-Dextrose Agar (Oxoid CM 41) by incubating for 14 days at 27° C. To prepare the inocula 30 ml volumes of Sabouraud-Liquid medium (Oxoid CM 147) were inoculated from the agar cultures and incubated at 27° C. until heavy uniform growth resulted. The mycelial growth was then broken up by shaking with glass beads.
(§4) 1 Ml aliquots were removed from each of the cultures for the purpose of making viable counts and the cultures were then held at 4° C. The viable counts were made by preparing serial ten-fold dilutions of the cultures in sterile physiological saline and spreading on plates of Sabouraud-Dextrose Agar (Oxoid CM 41) which were then incubated at 27° C. for 14 days. When the viable counts had confirmed that each of the inocula contained approximately 10^6 colony forming units (C.F.U.) per ml the cultures were withdrawn from the refrigerator and used as the inocula for the tests.
(§5) (c) For the tests on each of the remaining seven strains and each of the test and reference compounds, a series of 8 tubes containing 4.5 ml volumes of Sabouraud-Liquid Medium (Oxoid CM 147) were prepared. To 7 of these were added 0.5 ml volumes of the final solutions of the test compounds, giving final concentrations in the broths of 100, 50, 10, 5, 1.0, 0.5 and 0.1 μg/ml. To the eighth tube in each series was added 0.5 ml of the solvent used and diluted as for the preparation of the 500 μg/ml solution of the compound. This tube was used as a growth control. The tubes were then inoculated with 0.1 ml aliquots of the inocula prepared as in "(b) Fungi" above. The tubes were then incubated at 27° C. with continuous shaking for a period of one week. The tubes were then examined for evidence of growth as shown by the presence of mycelial growth in the medium and the lowest concentration of the test compound which prevented fungal growth was recorded as the Minimal Inhibitory Concentration. This test procedure was carried out on two separate days.

P. mirabilis = assay: Antibacterial activity: Minimum Inhibitory Concentration; assay type: cell-based, Proteus mirabilis NCTC 8559; details: Proteus mirabilis, read-out: Minimum Inhibitory Concentration
Experimental: as §1, §2
They were cultured and maintained on Tryptone Soy Agar (Oxoid CM 131), with the addition of 10% horse blood for the S. pyogenes.
To prepare the organisms as inocula for the test, slopes of this medium were streaked with the organisms and incubated at 37° C. for 24 hours. 4.5 Ml volumes of Brian-Heart Infusion Broth (Oxoid CM 225) were then inoculated with a platinum loop from the agar slope cultures and incubated for 24 hours at 37° C. The final inocula were then prepared by adding 0.1 ml aliquots of the Brain-Heart Infusion Broth cultures to 100 ml volumes of sterile physiological saline.
(a) For the test on each of the bacterial strains and each of the test and reference compounds, a series of 8 tubes containing 4.5 ml volumes of Brain-Heart Infusion Broth (Oxoid CM 225) were prepared. To 7 of these were added 0.5 ml volumes of the final solutions of the test compouns, giving final concentrations in the broths of 100, 50, 10, 5, 1.0, 0.5 and 0.1 μg/ml. To the eighth tube in each series was added 0.5 ml of the solvent used and diluted as for the preparation of the 1000 μg/ml solution of the compound. This tube was used as the growth control. The tubes were inoculated with 0.02 ml aliquots of the inocula prepared in accordance with "(a) Bacteria" above, and incubated at 37° C. for 24 hours. The tubes were then examined for evidence of bacterial growth as shown by turbidity of the medium and the lowest concentration of the test compound which prevented bacterial growth was recorded as the Minimal Inhibitory Concentration. This test procedure was carried out on two separate days.

C. neoformans = assay: Antimycotic activity: Minimum Inhibitory Concentration; assay type: cell-based, Cryptococcus neoformans NCPF 3184; details: Cryptococcus neoformans, pH 5.5, 30° C., 72 hours
Experimental: as §1, §2
The C. neoformans was also maintained on Sabouraud-Dextrose Agar (Oxoid CM 41), but in this case cultures for the preparation of the inoculum were incubated on this agar at 30° C. for 48 hours. A 4.5 ml volume of citric acid-phosphate buffer pH 5.5 plus Yeast-Nitrogen Base (Difco-0392-15) was then inoculated from the agar culture and incubated at 30° C. for 48 hours. A 0.1 ml aliquot of this culture was then added to 100 ml sterile physiological saline to give the final inoculum.
(b) For the tests on each of the C. albicans, C. tropicalis and C. neoformans strains and each of the test and reference compounds, a series of 8 tubes containing 4.5 ml volumes of citric acid-phosphate buffer pH 5.5 plus Yeast-Nitrogen Base (Difco 0392-15) were prepared. To 7 of these were added 0.5 ml volumes of the final solutions of the test compounds, giving final concentrations in the broths of 100, 50, 10, 5, 1.0, 0.5 and 0.1 μg/ml. To the eighth tube in each series was added 0.5 ml of the solvent used and diluted as for the preparation of the 1000 μg/ml solution of the compound. This tube was used as the growth control. The tubes were then inoculated with 0.1 ml aliquots of the inocula prepared as in "(b) Fungi" above. The tubes inoculated with the C. albicans and C. tropicalis were inoculated at 37° C. for 72 hours and the tubes inoculated with the C. neoformans straim were incubated at 30° C. for 72 hours. […] The tubes were then examined for evidence of growth as shown by turbidity of the medium and the lowest concentration of the test compound which prevented fungal growth was recorded as the Minimal Inhibitory Concentration. This test procedure was carried out on two separate days.

T. mentagrophytes = assay: Antifungal activity: Minimum Inhibitory Concentration; assay type: cell-based, Trichophyton mentagrophytes NCPF 410; details: T. mentagrophytes, 27° C., one week; for MIC: Trichophyton mentagrophytes, read-out: Minimum Inhibitory Concentration
Experimental: as §1, §2
T. mentagrophytes NCPF 410
as §3, §4, §5

A. fumigatus = assay: as above; assay type: cell-based, Aspergillus fimigatus (A. fumigatus) NCPF 2140; details: A. fumigatus, 27° C., one week; for MIC: Aspergillus fumigatus, read-out: Minimum Inhibitory Concentration
Experimental: as §1, §2, §3, §4, §5

T. rubrum = assay: as above; assay type: cell-based, Trichophyton rubrum NCPF 197; details: T. rubrum, 27° C., one week; for MIC: Trichophyton rubrum, read-out: Minimum Inhibitory Concentration
Experimental: as §1, §2, §3, §4, §5

[1] = A. corymbifera, Day 2, 27° C., one week
[2] = A. corymbifera, Day 1, 27° C., one week
[3] = P. mirabilis, Day 1, 37° C., 24 hours
[4] = P. mirabilis, Day 2, 37° C., 24 hours
[5] = pH 5.5, C. neoformans, Day 1, read-out: Minimum Inhibitory Concentrations
[6] = pH 5.5, C. neoformans, Day 2, read-out: Minimum Inhibitory Concentrations

Compound | Minimum Inhibitory Concentration (A. corymbifera; [1]) | MIC (A. corymbifera) | MIC (P. mirabilis) | MIC (C. neoformans; pH 5.5, read-out: Minimum Inhibitory Concentrations, C. neoformans, Day 1) | MIC (C. neoformans; pH 5.5, read-out: Minimum Inhibitory Concentrations, C. neoformans, Day 2) | Minimum Inhibitory Concentration (T. mentagrophytes; Day 1) | Minimum Inhibitory Concentration (A. fumigatus; Day 2) | Minimum Inhibitory Concentration (T. rubrum; Day 2) | MIC (A. corymbifera; [2]) | MIC (A. corymbifera; [1]) | MIC (P. mirabilis; [3]) | MIC (P. mirabilis; [4]) | MIC (C. neoformans; [5]) | MIC (C. neoformans; [6]) | MIC (T. mentagrophytes; Day 1) | MIC (T. mentagrophytes; Day 2) | MIC (A. fumigatus; Day 1) | MIC (A. fumigatus; Day 2) | MIC (T. rubrum; Day 1) | MIC (T. rubrum; Day 2)
CCCCCCCCCCCCCCCC[n+]1c(C)cc(C)n1C.Cc1ccc(S(=O)(=O)[O-])cc1 [Example 6-C, 1-hexadecyl-2,3,5-trimethylpyrazolium p-toluene sulfonate] | 10 µg/mL | 10 µg/mL | 50 µg/mL | 1 µg/mL | 1 µg/mL | 5 µg/mL | 5 µg/mL | 5 µg/mL |  |  |  |  |  |  |  |  |  |  |  | 
CCCCCCCCCCCCCC[n+]1c(C)cc(C)n1Cc1ccc([N+](=O)[O-])cc1.[Br-] [Example 6-D, 3,5-dimethyl-2(4-nitrobenzyl)-1-tetradecyl-pyrazolium bromide] |  |  |  |  |  |  |  |  | 50 µg/mL | 50 µg/mL | 50 µg/mL | 50 µg/mL | 0.5 µg/mL | 0.5 µg/mL | 10 µg/mL | 10 µg/mL | 50 µg/mL | 50 µg/mL | 10 µg/mL | 10 µg/mL
CCCCCCCCCCCCCCCCn1c(C)cc(C)[n+]1C [Example 2, 1-hexadecyl-2,3,5-trimethyl-pyrazolium methosulfate] |  |  |  |  |  |  |  |  | 50 µg/mL | 50 µg/mL | 10 µg/mL | 10 µg/mL | 0.5 µg/mL | 0.5 µg/mL | 1 µg/mL | 5 µg/mL | 10 µg/mL | 5 µg/mL | 5 µg/mL | 5 µg/mL
CCCCCCCCCCCCCCCCn1ccc[n+]1C [Example 3-D, 1-hexadecyl-2-methyl-pyrazolium methosulfate] |  |  |  |  |  |  |  |  | 10 µg/mL | 5 µg/mL | 10 µg/mL | 50 µg/mL | 5 µg/mL | 1 µg/mL | 1 µg/mL | 1 µg/mL | 50 µg/mL | 10 µg/mL | 1 µg/mL | 1 µg/mL
